{
  "source": "paper PMC11790914",
  "about": "“Chemogenomics for steroid hormone receptors (NR3)” (Communications Chemistry, 2025)",
  "key": {"Gal4-VP16": {"test_system": "Gal4-VP16", "format": "cell-based", "conditions": "1 µM; vs. DMSO ctrl; single replicates n=1-3"}, "ABL1": {"molecular_target": "T1, ABL1 (Homo sapiens, UniProt P00519)", "T1 construct": "made in house", "T1 sequence (P00519 whole entry, species assumed)": "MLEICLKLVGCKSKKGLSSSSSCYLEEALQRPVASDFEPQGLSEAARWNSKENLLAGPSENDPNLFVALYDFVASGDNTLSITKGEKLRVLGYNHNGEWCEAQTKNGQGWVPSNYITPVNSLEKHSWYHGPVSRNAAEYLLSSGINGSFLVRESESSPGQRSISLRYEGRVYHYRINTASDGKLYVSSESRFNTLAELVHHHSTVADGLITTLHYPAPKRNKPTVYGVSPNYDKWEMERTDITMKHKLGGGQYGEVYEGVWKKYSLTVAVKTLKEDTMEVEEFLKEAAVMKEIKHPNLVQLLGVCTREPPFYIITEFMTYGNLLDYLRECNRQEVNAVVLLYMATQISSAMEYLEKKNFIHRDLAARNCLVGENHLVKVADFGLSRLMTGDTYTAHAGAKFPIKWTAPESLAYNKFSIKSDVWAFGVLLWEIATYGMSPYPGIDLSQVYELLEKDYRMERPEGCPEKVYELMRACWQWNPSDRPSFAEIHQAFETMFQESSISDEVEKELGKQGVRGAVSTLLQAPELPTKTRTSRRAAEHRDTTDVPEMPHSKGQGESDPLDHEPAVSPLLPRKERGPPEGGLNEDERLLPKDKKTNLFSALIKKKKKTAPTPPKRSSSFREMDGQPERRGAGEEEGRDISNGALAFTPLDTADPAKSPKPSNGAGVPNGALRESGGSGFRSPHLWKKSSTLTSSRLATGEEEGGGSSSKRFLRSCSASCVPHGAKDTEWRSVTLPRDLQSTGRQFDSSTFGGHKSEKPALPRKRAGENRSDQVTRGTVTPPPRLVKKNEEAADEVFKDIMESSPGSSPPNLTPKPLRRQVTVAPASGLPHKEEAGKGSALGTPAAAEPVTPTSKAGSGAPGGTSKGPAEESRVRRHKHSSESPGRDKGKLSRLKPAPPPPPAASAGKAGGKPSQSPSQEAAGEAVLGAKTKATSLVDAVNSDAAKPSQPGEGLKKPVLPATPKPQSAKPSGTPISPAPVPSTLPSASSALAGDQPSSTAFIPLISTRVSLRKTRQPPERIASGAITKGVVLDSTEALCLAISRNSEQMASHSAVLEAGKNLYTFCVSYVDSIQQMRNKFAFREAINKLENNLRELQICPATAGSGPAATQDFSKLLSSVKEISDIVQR", "experiment": "Liability panel screening by DSF: ABL1", "format": "binding", "conditions": "DSF, 20 µM, n=2; read-out: Mean ΔTM ABL1", "procedure,_shortened": "(§1)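 ∆Tm in K was taken from Boltzmann-fitted unfolding inflection points, run in duplicate with a temperature ramp of 3 °C per minute up to 85 °C. Each recombinant protein (2 µM) was in HEPES 10 mM pH 7.5 and NaCl 500 mM, with SYPRO Orange dye at 1:1000.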"}, "AURKA": {"molecular_target": "T2, AURKA (Homo sapiens, UniProt O14965)", "T2 construct": "made in house", "T2 sequence (O14965 1-403)": "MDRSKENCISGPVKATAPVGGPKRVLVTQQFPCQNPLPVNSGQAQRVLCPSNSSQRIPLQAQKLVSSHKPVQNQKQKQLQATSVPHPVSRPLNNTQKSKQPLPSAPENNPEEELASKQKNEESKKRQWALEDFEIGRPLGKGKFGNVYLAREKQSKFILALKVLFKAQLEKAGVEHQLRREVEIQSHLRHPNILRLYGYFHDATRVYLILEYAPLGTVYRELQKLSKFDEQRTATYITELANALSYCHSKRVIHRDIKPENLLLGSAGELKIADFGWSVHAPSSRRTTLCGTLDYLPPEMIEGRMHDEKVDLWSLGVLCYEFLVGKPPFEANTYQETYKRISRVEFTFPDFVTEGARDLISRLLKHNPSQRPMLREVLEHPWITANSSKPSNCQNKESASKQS", "experiment": "Liability panel screening by DSF: AURKA", "format": "binding", "conditions": "DSF, 20 µM, n=2; read-out: Mean ΔTM AURKA", "procedure,_shortened": "as §1"}, "CDK2": {"molecular_target": "T3, CDK2 (Homo sapiens, UniProt P24941)", "T3 construct": "made in house", "experiment": "Liability panel screening by DSF: CDK2", "format": "binding", "conditions": "DSF, 20 µM, n=2; read-out: Mean ΔTM CDK2", "procedure,_shortened": "as §1"}, "GSK3B": {"molecular_target": "T4, GSK3B (Homo sapiens, UniProt P49841)", "T4 construct": "made in house", "T4 sequence (P49841 whole entry, species assumed)": "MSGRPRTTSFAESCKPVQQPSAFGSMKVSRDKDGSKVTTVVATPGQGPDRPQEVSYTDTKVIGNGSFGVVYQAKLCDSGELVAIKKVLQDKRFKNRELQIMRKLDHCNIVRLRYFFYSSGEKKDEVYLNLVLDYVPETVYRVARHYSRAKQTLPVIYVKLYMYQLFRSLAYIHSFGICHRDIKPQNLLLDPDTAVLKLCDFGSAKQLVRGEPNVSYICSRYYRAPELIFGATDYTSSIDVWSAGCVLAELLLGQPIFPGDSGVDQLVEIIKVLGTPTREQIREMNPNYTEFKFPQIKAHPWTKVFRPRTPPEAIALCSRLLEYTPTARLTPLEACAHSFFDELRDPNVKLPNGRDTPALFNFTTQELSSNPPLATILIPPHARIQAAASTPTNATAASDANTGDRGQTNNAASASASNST", "experiment": "Liability panel screening by DSF: GSK3B", "format": "binding", "conditions": "DSF, 20 µM, n=2; read-out: Mean ΔTM GSK3B"}, "BRPF1": {"molecular_target": "T5, BRPF1 (Homo sapiens, UniProt P55201)", "T5 construct": "This panel comprised ten highly ligandable kinases and bromodomains; made in house", "T5 sequence (P55201 628-732 limits assumed)": "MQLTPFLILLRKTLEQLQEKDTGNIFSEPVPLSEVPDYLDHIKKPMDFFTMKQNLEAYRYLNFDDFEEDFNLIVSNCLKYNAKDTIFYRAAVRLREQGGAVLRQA", "experiment": "Liability panel screening by DSF: BRPF1", "format": "binding", "conditions": "DSF, 20 µM, n=2; read-out: Mean ΔTM BRPF1", "procedure,_shortened": "as §1"}, "CSNK1D": {"molecular_target": "T6, CSNK1D (Homo sapiens, UniProt P48730)", "T6 construct": "made in house", "T6 sequence (P48730 whole entry, species assumed)": "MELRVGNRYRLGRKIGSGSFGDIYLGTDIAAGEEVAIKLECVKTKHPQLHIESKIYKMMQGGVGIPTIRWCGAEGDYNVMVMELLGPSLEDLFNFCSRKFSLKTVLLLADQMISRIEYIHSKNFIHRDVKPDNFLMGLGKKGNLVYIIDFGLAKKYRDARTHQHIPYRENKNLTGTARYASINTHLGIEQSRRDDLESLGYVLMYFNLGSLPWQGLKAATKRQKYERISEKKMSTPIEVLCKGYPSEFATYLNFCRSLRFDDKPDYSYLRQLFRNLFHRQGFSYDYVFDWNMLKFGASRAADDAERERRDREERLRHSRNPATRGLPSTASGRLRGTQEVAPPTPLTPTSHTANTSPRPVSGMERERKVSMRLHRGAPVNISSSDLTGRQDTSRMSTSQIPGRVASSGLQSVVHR", "experiment": "Liability panel screening by DSF: CSNK1D", "format": "binding", "conditions": "DSF, 20 µM, n=2; read-out: Mean ΔTM CSNK1D", "procedure,_shortened": "as §1"}, "MAPK1": {"molecular_target": "T7, MAPK1 (Homo sapiens, UniProt P28482)", "T7 construct": "made in house", "T7 sequence (P28482 whole entry, species assumed)": "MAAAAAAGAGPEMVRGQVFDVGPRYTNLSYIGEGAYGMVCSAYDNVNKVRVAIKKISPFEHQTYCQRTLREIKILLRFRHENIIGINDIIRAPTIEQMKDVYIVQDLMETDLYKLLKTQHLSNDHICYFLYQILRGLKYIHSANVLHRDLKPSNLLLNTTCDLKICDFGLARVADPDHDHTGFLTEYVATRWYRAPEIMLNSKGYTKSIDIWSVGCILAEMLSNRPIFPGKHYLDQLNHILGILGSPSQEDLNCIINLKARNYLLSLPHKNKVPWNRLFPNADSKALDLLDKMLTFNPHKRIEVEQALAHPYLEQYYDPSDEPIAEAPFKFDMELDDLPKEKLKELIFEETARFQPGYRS", "experiment": "Liability panel screening by DSF: MAPK1", "format": "binding", "conditions": "DSF, 20 µM, n=2; read-out: Mean ΔTM MAPK1", "procedure,_shortened": "as §1"}, "TRIM24": {"molecular_target": "T8, TRIM24 (Homo sapiens, UniProt O15164)", "T8 construct": "This panel comprised ten highly ligandable kinases and bromodomains; made in house", "T8 sequence (O15164 899-1004 limits assumed)": "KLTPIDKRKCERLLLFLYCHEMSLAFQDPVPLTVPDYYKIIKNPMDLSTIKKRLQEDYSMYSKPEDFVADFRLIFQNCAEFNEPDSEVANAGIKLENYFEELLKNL", "experiment": "Liability panel screening by DSF: TRIM24", "format": "binding", "conditions": "DSF, 20 µM, n=2; read-out: Mean ΔTM TRIM24", "procedure,_shortened": "as §1"}, "[1]": {"test_system": "NF-κB activity in HEK293 NF-κB reporter cells", "experiment": "NF-kB activity assay (GFP reporter, ionomycin/PMA)", "format": "cell-based", "conditions": "for Mean NFκB response: n=3", "procedure,_shortened": "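HEK293 NF-κB GFP reporter cells given compound in 0.1% DMSO for 4 h, then stimulated with ionomycin 100 ng/mL plus PMA 10 ng/mL. Imaged every 90 min over 24 h; GFP-positive cell count normalized to confluence, three independent biological replicates.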"}, "[2]": {"test_system": "ATF6 activity in Hela ATF6 reporter cells", "experiment": "Endoplasmic reticulum stress assay (ATF6 Renilla luciferase reporter, tunicamycin)", "format": "cell-based", "conditions": "Homo sapiens, HeLa, 1 µM, single replicates n=1 to n=5; read-out: ER stress [rel. ATF6 activity]", "procedure,_shortened": "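HeLa ATF6 Renilla reporter cells were pretreated 4 h with compounds in 0.1% DMSO, then stimulated with tunicamycin (100 ng/mL) for 18 h. Renilla luminescence (DualGlo) was normalized to 0.1% DMSO control; five independent experiments.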"}, "HEK293T cells [3]": {"test_system": "HEK293T cells", "experiment": "Cytotoxicity: growth-rate (change in confluence over 24 h)", "conditions": "1 µM, normalized to 0.1% DMSO control, single replicates (n=1...)"}, "HEK293T cells [4]": {"test_system": "HEK293T cells", "experiment": "Cytotoxicity: apoptosis induction (caspase-3/7 DEVD fluorogenic DNA dye)", "conditions": "HEK293T, 24 h"}},
  "note": "Values joined by “and” are separate entries in the source; they are usually repeats but may differ in a detail not shown here. Identical values can stand only once.",
  "data": [
    {"smiles": "C[C@@H]1Cc2c([nH]c3ccccc23)[C@@H](c2c(F)cc(/C=C/C(=O)O)cc2F)N1CC(C)(C)F", "note": "[AZD9496]", "values": [
      {"measurement": "VP16 control [fold reporter gene activity]", "setting": "Gal4-VP16", "result": "1.31 fold reporter gene activity and 1.10 fold reporter gene activity and 1.59 fold reporter gene activity"},
      {"measurement": "ΔTm at 20 µM", "setting": "ABL1", "result": -0.24, "unit": "°C"},
      {"measurement": "ΔTm at 20 µM", "setting": "AURKA", "result": -0.16, "unit": "°C"},
      {"measurement": "ΔTm at 20 µM", "setting": "CDK2", "result": -0.07, "unit": "°C"},
      {"measurement": "ΔTm at 20 µM", "setting": "GSK3B", "result": 0, "unit": "°C"},
      {"measurement": "ΔTm at 20 µM", "setting": "BRPF1", "result": -4.53, "unit": "°C"},
      {"measurement": "ΔTm at 20 µM", "setting": "CSNK1D", "result": 0.64, "unit": "°C"},
      {"measurement": "ΔTm at 20 µM", "setting": "MAPK1", "result": 0.55, "unit": "°C"},
      {"measurement": "ΔTm at 20 µM", "setting": "TRIM24", "result": -0.62, "unit": "°C"},
      {"measurement": "Mean NFκB response", "setting": "[1]; 1 µM, 1,5 h", "result": "3183.32 GFP+-cells/confluence ∙ 1000"},
      {"measurement": "Mean NFκB response", "setting": "[1]; 1 µM, 4,5 h", "result": "3743.71 GFP+-cells/confluence ∙ 1000"},
      {"measurement": "Mean NFκB response", "setting": "[1]; 1 µM, 7,5 h", "result": "6968.05 GFP+-cells/confluence ∙ 1000"},
      {"measurement": "Mean NFκB response", "setting": "[1]; 1 µM, 10,5 h", "result": "12962.04 GFP+-cells/confluence ∙ 1000"},
      {"measurement": "Mean NFκB response", "setting": "[1]; 1 µM, 13,5 h", "result": "18218.90 GFP+-cells/confluence ∙ 1000"},
      {"measurement": "Mean NFκB response", "setting": "[1]; 1 µM, 16,6 h", "result": "22070.92 GFP+-cells/confluence ∙ 1000"},
      {"measurement": "Mean NFκB response", "setting": "[1]; 1 µM, 19,5 h", "result": "24828.05 GFP+-cells/confluence ∙ 1000"},
      {"measurement": "Mean NFκB response", "setting": "[1]; 1 µM, 22,5 h", "result": "27011.69 GFP+-cells/confluence ∙ 1000"},
      {"measurement": "Mean NFκB response", "setting": "[1]; 1 µM, 3 h", "result": "3319.11 GFP+-cells/confluence ∙ 1000"},
      {"measurement": "Mean NFκB response", "setting": "[1]; 1 µM, 6 h", "result": "4897.81 GFP+-cells/confluence ∙ 1000"},
      {"measurement": "Mean NFκB response", "setting": "[1]; 1 µM, 9 h", "result": "10141.67 GFP+-cells/confluence ∙ 1000"},
      {"measurement": "Mean NFκB response", "setting": "[1]; 1 µM, 12 h", "result": "15818.86 GFP+-cells/confluence ∙ 1000"},
      {"measurement": "Mean NFκB response", "setting": "[1]; 1 µM, 15 h", "result": "20214.01 GFP+-cells/confluence ∙ 1000"},
      {"measurement": "Mean NFκB response", "setting": "[1]; 1 µM, 18 h", "result": "23720.26 GFP+-cells/confluence ∙ 1000"},
      {"measurement": "Mean NFκB response", "setting": "[1]; 1 µM, 21 h", "result": "26076.44 GFP+-cells/confluence ∙ 1000"},
      {"measurement": "Mean NFκB response", "setting": "[1]; 1 µM, 24 h", "result": "27738.19 GFP+-cells/confluence ∙ 1000"},
      {"measurement": "NF-κB activity (inflammatory response to ionomycin/PMA)", "setting": "[1]; HEK293 NF-κB reporter cells, compounds at recommended concentrations, imaged over 24 h, n = 3", "result": "reducing the inflammatory response"},
      {"measurement": "activity at 1 µM", "setting": "[2]", "result": 101, "unit": "%"},
      {"measurement": "Growth rate [GR]", "setting": "HEK293T cells [3]", "result": "1.04 and 0.96 and 0.95 and 1.23 and 0.78 and 0.74 (3×) and 1.43 and 4.43"},
      {"measurement": "Apoptosis induction [AI]", "setting": "HEK293T cells [4]; 1 µM, apoptotic cell count normalized to 0.1% DMSO, single replicates", "result": "0.64 and 1.56 and 0.90 and 1.15 and 1.90 and 3.05"},
      {"measurement": "apoptosis induction", "setting": "HEK293T cells [4]; budesonide (3 µM), others at tested concentration", "result": "slight apoptosis induction"}
    ]}
  ]
}
